Reference: the NIST ThermoML archive (doi:10.1021/acs.jced.6b01043)

Experiment: relative permittivity at zero frequency (dimensionless); xn = mol fraction of the nth substance listed
Settings: Gas, Reentrant cavity resonator

[Ar] [argon] + O=C=O
Settings	relative permittivity at zero frequency
255.1 K, 2068.9 kPa, x1 = 0.0505	1.02661
260.14 K, 2446.9 kPa, x1 = 0.0505	1.03197
266.15 K, 2919.5 kPa, x1 = 0.0505	1.03887
271.4 K, 3365.6 kPa, x1 = 0.0505	1.04566
273.2 K, 454.8 kPa, x1 = 0.2491	1.004
273.2 K, 962.7 kPa, x1 = 0.2491	1.0088
273.2 K, 1001.6 kPa, x1 = 0.2491	1.0091
273.2 K, 2004.3 kPa, x1 = 0.2491	1.0195
273.2 K, 2014.8 kPa, x1 = 0.2491	1.0196
273.2 K, 3008.7 kPa, x1 = 0.2491	1.0314
273.2 K, 4029 kPa, x1 = 0.2491	1.0459
273.2 K, 4487 kPa, x1 = 0.2491	1.0535
273.21 K, 506.6 kPa, x1 = 0.2491	1.0045
279.73 K, 4266.1 kPa, x1 = 0.0505	1.06129
279.73 K, 4267.8 kPa, x1 = 0.0505	1.06132
283.23 K, 492.8 kPa, x1 = 0.2491	1.0042
283.23 K, 969.4 kPa, x1 = 0.0505	1.00945
283.23 K, 4007.7 kPa, x1 = 0.0505	1.05273
283.23 K, 4493.9 kPa, x1 = 0.0505	1.06407
283.23 K, 6491.3 kPa, x1 = 0.2491	1.0858
283.24 K, 1029.9 kPa, x1 = 0.0505	1.01008
283.24 K, 2002 kPa, x1 = 0.2491	1.0185
283.24 K, 2006.1 kPa, x1 = 0.0505	1.0212
283.24 K, 2011.5 kPa, x1 = 0.0505	1.02127
283.24 K, 2992.8 kPa, x1 = 0.2491	1.0294
283.24 K, 2993.3 kPa, x1 = 0.2491	1.0294
283.24 K, 2998.2 kPa, x1 = 0.0505	1.03482
283.24 K, 3973.7 kPa, x1 = 0.0505	1.05203
283.24 K, 3995.6 kPa, x1 = 0.2491	1.042
283.24 K, 4006.4 kPa, x1 = 0.2491	1.0421
283.24 K, 4991.8 kPa, x1 = 0.2491	1.0568
283.24 K, 5983.5 kPa, x1 = 0.2491	1.0748
283.24 K, 5987 kPa, x1 = 0.2491	1.0749
283.25 K, 1008.9 kPa, x1 = 0.2491	1.0088
283.25 K, 2012.2 kPa, x1 = 0.2491	1.0186
283.44 K, 4710.8 kPa, x1 = 0.0505	1.06985
289.87 K, 5632 kPa, x1 = 0.0505	1.09119
292.67 K, 6086.3 kPa, x1 = 0.0505	1.10382
293.27 K, 1007.1 kPa, x1 = 0.2491	1.0085
293.27 K, 2005.7 kPa, x1 = 0.2491	1.0177
293.27 K, 3006.2 kPa, x1 = 0.2491	1.0279
293.27 K, 4006.6 kPa, x1 = 0.2491	1.0394
293.27 K, 4993.4 kPa, x1 = 0.2491	1.0523
293.27 K, 5847.6 kPa, x1 = 0.2491	1.0651
293.27 K, 6499.2 kPa, x1 = 0.2491	1.0761
293.28 K, 3999.6 kPa, x1 = 0.2491	1.0393
293.28 K, 5994.6 kPa, x1 = 0.2491	1.0674
294.27 K, 6419.2 kPa, x1 = 0.0505	1.11591
313.26 K, 2602.6 kPa, x1 = 0.0505	1.02461
313.26 K, 3052 kPa, x1 = 0.0505	1.02963
313.26 K, 3592.1 kPa, x1 = 0.0505	1.03607
313.28 K, 7083.6 kPa, x1 = 0.0505	1.0967
313.29 K, 4089.6 kPa, x1 = 0.0505	1.04247
313.3 K, 4550.7 kPa, x1 = 0.0505	1.04884
313.3 K, 5083 kPa, x1 = 0.0505	1.05688
313.3 K, 5566.4 kPa, x1 = 0.0505	1.06488
313.3 K, 6028.4 kPa, x1 = 0.0505	1.07333
313.3 K, 6550 kPa, x1 = 0.0505	1.08408
313.3 K, 7027.1 kPa, x1 = 0.0505	1.09523
